One experiment deals with rat knee joint. As to the kind of experiment: Carrageenan (CAR)-induced knee joint inflammation: swelling and thermal hyperalgesia (Hargreaves test). In kind it is in vivo. The note with it: intra-articular administration 30 minutes before CAR. Here is the method: In order to induce an inflammation reaction, a carrageenan solution (CAR, 1%, 50 μl) was injected intra-articularly on one side into a rat knee joint. The uninjected side was used for control purposes. Six animals per group were used. The […] was determined by means of a micrometer screw (medial-lateral on the knee joint), and the thermal hyperalgesia was determined by means of a directed infrared light source by the Hargreaves method (Hargreaves et al., 1988) on the sole of the foot. Since the site of inflammation (knee joint) is different from the site of measurement (paw sole), use is made here of the term secondary thermal hyperalgesia, the mechanism of which is of importance for the discovery of effective analgesics.
Experimental description of thermal hyperalgesia (Hargreaves test): the experimental animal is placed in a plastic chamber on a quartz sheet. Before testing, the experimental animal is firstly given about 5-15 minutes time to familiarise itself with the environment. As soon as the experimental animal no longer moves so frequently after the familiarisation phase (end of the exploration phase), the infrared light source, whose focus is in the plane of the glass bottom, is positioned directly beneath the rear paw to be stimulated. An experiment run is then started by pressing the button: infrared light results in an increase in the skin temperature of the rear paw. The experiment is terminated either by the experimental animal raising the rear paw (as an expression of the pain threshold being reached) or by automatic switching-off of the infrared light source when a prespecified maximum temperature has been reached. Light reflected by the paw is recorded as long as the experimental animal sits still. Withdrawal of the paw interrupts this reflection, after which the infrared light source is switched off and the time from switching on to switching off is recorded. The instrument is calibrated in such a way that the infrared light source increases the skin temperature to about 45 degrees Celsius in 10 s (Hargreaves et al. 1988). […]

For experiment [1], the target named is cathepsin D isolated from the human liver (Homo sapiens (Human), UniProt P07339). As to the kind of experiment: In-vitro fluorescence assay for identification of cathepsin D inhibitors. Format: biochemical. The note with it: cathepsin D 1.4 nM, pH 5.5; read-out: CatD assay IC50-. In short, it runs like this:
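Human liver cathepsin D (1.4 nM final) preincubated 10 min at room temperature with serially diluted compounds in 100 mM sodium acetate pH 5.5, 1.25% DMSO, 0.25% CHAPS. Reaction started with 5 μM MCA/Dnp-quenched peptide substrate. Fluorescence increase (ex 340/em 450 nm) over 60 min at room temperature compared with compound-free wells.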

Here are results for two compounds from patent publication US9345742B2, “Aminostatin derivatives for the treatment of arthrosis” (MERCK PATENT GMBH, priority 2011, dated 2016).

Numbered stars: 1 amine (or outer) side, 2 acyl side, 3 side chain; on linkers, the order of the positions; unused ones are H or OH. Square brackets hold non-standard residues; d marks the D form. Peptide text beside a SMILES is read from it. * marks the point of attachment. X1 = N[C@@H](CC(=O)[*:2])[C@H](Cc1ccccc1)N[*:1]; Isovaleryl = CC(C)CC(=O)*

Sequence of cathepsin D isolated from the human liver (P07339 65-161): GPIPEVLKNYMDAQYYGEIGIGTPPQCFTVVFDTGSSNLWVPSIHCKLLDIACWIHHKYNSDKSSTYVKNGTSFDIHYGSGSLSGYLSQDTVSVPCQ
Sequence of cathepsin D isolated from the human liver (P07339 169-412): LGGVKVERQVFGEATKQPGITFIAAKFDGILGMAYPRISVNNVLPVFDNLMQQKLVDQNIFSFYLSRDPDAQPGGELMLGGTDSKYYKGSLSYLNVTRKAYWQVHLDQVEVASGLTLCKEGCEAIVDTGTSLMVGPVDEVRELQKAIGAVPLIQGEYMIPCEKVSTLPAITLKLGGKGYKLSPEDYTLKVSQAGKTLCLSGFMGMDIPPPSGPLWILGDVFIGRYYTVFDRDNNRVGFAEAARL

For `C[C@]12C=CC(=O)C=C1CC[C@H]1[C@@H]3C[C@@H](O)[C@](O)(C(=O)CO)[C@@]3(C)C[C@H](O)[C@@]12F` [TAC, Triamcinolone, reference compound], the “CAR-induced swelling of joint” value with rat knee joint is “capable of reducing the CAR-induced swelling”.

With `CC[C@H](C)[C@H](NC(=O)C[C@H](N)[C@H](Cc1ccccc1)NC(=O)[C@@H](NC(=O)[C@H](CC(C)C)NC(=O)CC(C)C)C(C)C)C(=O)N[C@H](C(=O)O)C(C)C` [Compound 23, (S)-2-[(2S,3S)-2-((3S,4S)-3-Amino-4-{(S)-3-methyl-2-[(S)-4-methyl-2-(3-methylbutyrylamino)pentanoylamino]-butyrylamino}-5-phenylpentanoylamino)-3-methyl-pentanoylamino]-3-methylbutyric acid] (Isovaleryl-LV[X1]IV-OH), the half-maximal inhibitory concentration (IC50) in experiment [1] was determined as 50 nM. Further, the “CAR-induced swelling of joint” value with rat knee joint is “no influence on inflammatory swelling”. The thermal hyperalgesia entry with rat knee joint (Hargreaves test) was “exerts an anti-hyperalgesic action”.

As usually defined, the IC50 is the concentration needed to halve the response being measured.
